Laboratory results taken from patent publication US11382947B2, “Targeting G3BP proteins to accelerate nerve regeneration” (University of South Carolina, priority 2017, dated 2022).
Entries after “also recorded” stand apart in the source; their conditions may differ.

Tests used:
Assay type in all cases: cell-based, rat
[1] = system: DRG neurons; assay: Axon growth of dissociated DRG neuron cultures treated with Tat-fused G3BP1 peptides
Method: For primary neuronal cultures, L4-5 DRG were harvested in Hybernate-A medium (BrainBits) and then dissociated as known to those of skill in the art. After centrifugation and washing in DMEM/F12 (Life Technologies), cells were resuspended in DMEM/F12, 1×N1 supplement (Sigma), 10% fetal bovine serum (Hyclone), and 10 μM cytosine arabinoside (Sigma). Dissociated DRGs were plated immediately on laminin/poly-L-lysine-coated coverslips or transfected (see below) and then plated on coated coverslips. […] Neurite outgrowth was assessed 24 h after addition of peptides. For the cortical cultures, 10 μM peptide was applied to the axonal compartment at 3 d in vitro (DIV) and axonal growth was assessed at 6 DIV. For neurite outgrowth, images from 60 h DRG cultures were analyzed for neurite outgrowth using WIS-Neuromath. Axon morphology was visualized using GFP and/or NF immunofluorescence as described.

[2] = system: DRG neurons; assay: Axon growth of DRG neurons transfected with G3BP1 constructs or siRNA; details: siRNA-mediated knockdown, 100 nM siRNA vs. control siRNA; FIG. 15C
Method: For primary neuronal cultures, L4-5 DRG were harvested in Hybernate-A medium (BrainBits) and then dissociated as known to those of skill in the art. After centrifugation and washing in DMEM/F12 (Life Technologies), cells were resuspended in DMEM/F12, 1×N1 supplement (Sigma), 10% fetal bovine serum (Hyclone), and 10 μM cytosine arabinoside (Sigma). Dissociated DRGs were plated immediately on laminin/poly-L-lysine-coated coverslips or transfected (see below) and then plated on coated coverslips.
For DRG neuron transfection, dissociated ganglia were pelleted by centrifugation at 100×g for 5 min and resuspended in ‘nucleofector solution’ (Rat Neuron Nucleofector kit; Lonza). 5-7 μg plasmid was electroporated using an AMAXA Nucleofector apparatus (program SCN-8; Lonza). For siRNA transfection, 100 nM siRNAs (Dharmacon) were used with DharmaFECT 3 reagent and incubated for 36 h. G3BP1 siRNA sequence: 5′ […] 3′. Non-targeting siRNAs (siCon) were as control. RTddPCR was used to test the efficiency of depletion (see below). HEK293T cells were transfected using Lipofectamine® 2000 per manufacturer's instructions (Invitrogen). AAV5 preparations were titrated in DRG cultures by incubating with […] particles of AAV5 overnight.
For neurite outgrowth, images from 60 h DRG cultures were analyzed for neurite outgrowth using WIS-Neuromath. […]

[3] = system: cortical neurons; assay: Axon growth of cortical neurons in microfluidic devices, peptide applied to axonal compartment; details: 10 μM peptide applied to axonal compartment at 3 DIV, assessed at 6 DIV; FIG. 11C
Method: For cortical neuron cultures, E18 cortices were dissected in Hibernate E (BrainBits) and dissociated using the Neural Tissue Dissociation kit (Miltenyi Biotec). […] After washing and centrifugation, neurons were seeded at a density of 1×10^5 cells per poly-D-lysine-coated microfluidic device (Xona Microfluidics). NbActive-1 medium (BrainBits) supplemented with 100 U/ml of Penicillin-Streptomycin (Life Technologies), 2 mM L-Glutamine (Life Technologies), and 1×[…] supplement (R&D Systems) was used as culture medium. For peptide treatments, 10 μM Tat-fused peptides were added to dissociated DRG cultures at 2 or 12 h after plating. Neurite outgrowth was assessed 24 h after addition of peptides. For the cortical cultures, 10 μM peptide was applied to the axonal compartment at 3 d in vitro (DIV) and axonal growth was assessed at 6 DIV.

[4] = system: axonal mRNA translation in DRG neurons; assay: FRAP of axonally targeted translation reporters in DRG neurons; details: G3BP1-overexpressing DRGs, 10 μM peptide; FIG. 14C
Method: FRAP was used to test for axonal mRNA protein synthesis using diffusion-limited GFP^MYR and mCherry^MYR reporters as described with minor modifications. In each case, DRG neurons were co-transfected with […]+mCherry^MYR5'/3'gap43 or […]β1+mCherry^MYR5'/3'gap43 so that recovery of both reporters could be analyzed simultaneously. Cells were maintained at 37° C., 5% CO2 during imaging sequences. 488 nm and 514 nm laser lines on Leica SP8X confocal microscope were used to bleach GFP and mCherry signals, respectively (Argon laser at 70% power, pulsed every 0.82 sec for 80 frames). Pinhole was set to 3 Airy units to ensure full thickness bleaching and acquisition (63×/1.4 NA oil immersion objective). Prior to photobleaching, neurons were imaged every 60 sec for 2 min to acquire baseline fluorescence the region of interest (ROI; 15% laser power, 498-530 nm for GFP and 565-597 nm for mCherry emissions, respectively). The same excitation and emission parameters were used to assess recovery over 15 min post-bleach with images acquired at 30 sec intervals. To determine if fluorescence recovery in axons was from translation, cultures were treated with 150 μg/ml cycloheximide (Sigma) or 100 μM anisomycin (Sigma) for 30 min. prior to photobleaching for […]+mCherry^MYR5'/3'gap43 and […] transfected DRGs, respectively. For peptide treatments, G3BP1-mCh transfected DRG neurons were treated with 10 μM G3BP1 peptides after acquiring the baseline expression values. Photobleaching followed by analyses of recovery was performed after 30 min of peptide exposure. Fluorescent intensities in the ROIs were calculated by the Leica LASX software. For normalizing across experiments, fluorescence intensity value at t=0 min post-bleach from each image sequence was set as 0%. The percentage of fluorescence recovery at each time point after photobleaching was then calculated by normalizing relative to the pre-bleach fluorescence intensity (set at 100%).

[5] = system: protein synthesis in DRG neurons; assay: Puromycinylation assay for newly synthesized proteins in DRG neurons; details: peptide treatment, compared to control and 168-189 peptide, FIG. 12D
Method: To visualize newly synthesized proteins in cultured neurons, the current disclosure used the Click-iT® Plus OPP Protein Synthesis Assay Kit per manufacturer's instructions (Invitrogen/Life Technologies). Briefly, 3 DIV cultures were incubated with 20 μM O-propargyl-puromycin (OPP) for 30 min at 37° C. OPP-labeled proteins were detected by crosslinking with Alexa Fluor-594 picolyl azide molecule. Coverslips were then mounted with Prolong Gold Antifade (Invitrogen) and imaged with Leica DMI6000 epifluorescent microscope as above. ImageJ was used to quantify the Puromycinylation signals in distal axons and cell bodies.

[6] = system: axonal G3BP1-mCh aggregates; assay: Live cell imaging of G3BP1-mCherry granules in DRG axons
Method: DRG neurons were transfected with G3BP1-mCherry, and 36 h later distal axons were imaged using Leica SP8X confocal microscope with environmental chamber maintained at 37° C., 5% CO2 (with 63×/1.4 NA oil immersion objective). Confocal pinhole was set to 0.43 airy units. G3BP1-mCherry signals were imaged in axon shaft every 2 sec for 100 frames (at 540 nm excitation and 23% white light laser power; 565-597 nm emission). To study the effect of the G3BP1 190-208 peptide on the G3BP1-mCherry granules, 10 μM FITC-conjugated peptide was added to the media and 15 min later imaging was continued. For G3BP1-mCherry aggregates, a 100 μm of the axon shaft was considered (≥200 μm from cell body). Thresholding was applied to acquired image sequences using ImageJ to generate binary masks. ImageJ particle analyzer was used for analysis. G3BP1 aggregates with area of ≥1 μm2 were considered as SG-like structures. For analyzing the G3BP1 aggregate velocity, ImageJ […] plug-in was used.

[7] = 10 μM peptide added to DRG cultures immediately after plating, FIG. 16B

Substance | axon length [1, 7] | axon growth [2] | number of neurites per neuron [1, 7] | axon length ([1]; 7 d injury-conditioned (pre-injured) DRG neurons, peptide added at 12 h, assessed at 36 h, FIG. 11C) | axon length ([1]; naive DRG neurons, delayed application, peptide added at 12 h, assessed at 36 h, FIG. 11C) | axon growth [3] | axonal translation of GFPMYR5′/3′impβ1 mRNA [4] | axonal translation of GFPMYR5′/3′nrn1 mRNA [4] | axonal translation of mChMYR5′/3′gap43 mRNA [4] | axonal protein synthesis (Puro incorporation in DRG axons) ([5]; listed as 190-208 G3BP1 peptide) | axonal protein synthesis (Puro incorporation in DRG axons) ([5]; listed as G3BP1 190-208 peptide) | axonal G3BP1-mCh aggregates (density along 100 μm axon) ([6]; 10 μM peptide, within 15 min, FIG. 12G) | size of remaining SG-like structures in axons ([6]; after 10 μM peptide treatment, 15 min, FIG. 12H) | motility of remaining aggregates ([6]; after peptide treatment vs. control conditions)
Glu Glu Ser Glu Glu Glu Val Glu Glu Pro Glu Glu Arg Gln Gln Ser Pro Glu Val Val Tvr Glv Asn Lvs Lvs Asn Asn Gln Asn Asn Asn [147-166 peptide] | increased axon length | – | – | – | – | – | – | – | – | – | – | – | – | –
5′ ccacauaggagcugggaauuu 3′ [G3BP1 siRNA] | – | significantly increased axon growth | – | – | – | – | – | – | – | – | – | – | – | –
Tvr Glv Asn Lvs Lvs Asn Asn Asn Gln Asn Asn Asn Val Val Glu Pro Glu Pro Glu Pro Glu Pro Glu Pro Glu Pro Glu Pro Val Ser [190-208 peptide] | increased axon length | – | increased number of neurites per neuron | significantly increased axon length; also recorded: effectively increase axon growth | significantly increased axon length; also recorded: effectively increase axon growth | significant increase in axon growth; also recorded: significantly increased axon growth | did not affect translation | significantly rescued axonal translation | did not affect translation | significantly increased | increased axonal protein synthesis | striking decrease | significantly smaller | greater motility
